Data taken from patent US20260224489A1, “TRICINE AND CITRIC ACID-BASED CATIONIC LIPIDS WITH AROMATIC HEAD GROUPS” (SANOFI, priority 2023, published 2026).

How the values were obtained:
[1] = system: luciferase production in the lung; assay: Delivery of Firefly Luciferase (FFL) mRNA by intratracheal administration via catheter, IVIS imaging; assay type: in vivo, male CD1 mice; settings: for FFLuc (Avr. Rad.): single intratracheal administration, lung; for in vivo FFL protein production (FIG. 8), in words: intratracheal delivery via catheter of FFL mRNA lipid nanoparticles to mice
Method: Lipid nanoparticle formulations 1, 2 and 4 were administered via intratracheal pulmonary delivery. Compound B was the only cationic lipid evaluated via intratracheal pulmonary delivery with lipid nanoparticle formulation 2. Compound A was the only cationic lipid evaluated via intratracheal pulmonary delivery with lipid nanoparticle formulation 4. All other cationic lipids were evaluated via intratracheal pulmonary delivery with lipid nanoparticle formulation 1.
Lipid nanoparticle formulations 1, 2 and 4 listed in Table 1 comprising FFL mRNA, cationic lipid, DMG-PEG2000, cholesterol and DOPE were administered to male CD1 mice (6-8 weeks old) by a single intratracheal administration via Catheter® (50 μl/animal) while under anesthesia. At approximately 24 hours post-dose, the animals were dosed with luciferin at 150 mg/kg (60 mg/mi) by intraperitoneal injection at 2.5 ml/kg. After 5-15 minutes, all animals were imaged using an IVIS imaging system to measure luciferase production in the lung.

[2] = Lipid degradability by mouse lung S9 in vitro; assay type: in vitro ADME; settings: 2 μM lipid, 2.4 mg/ml lung S9, pH 7.4, 37° C., time points up to 48 hr
Method: (§1) Assay format—4 or 5 time points in triplicate.
(§2) • 1) Plan experiment, compounds, and reagents. • 2) Dissolve each lipid in DMSO or IPA to make 5 mM stock, then dilute by IPA to 200 μM work solution. • 3) Thaw mouse and human lung S9. • 4) Prepare pooled incubation mixture as in the reaction formulas below on ice. • 5) Aliquot 495 μL incubation mixture prepared in step #4 to each well of a 2 mL 96-well plate. • 6) Add 5 μL compound to each well to initiate the reaction. Take t0 samples (as in step #8). • 7) Cover the plate with 2 layers of breathable seals and incubate the plate on an orbital shaker at 150 rpm in a 37° C. CO2 incubator. • 8) At each time point, pipette to mix the incubation mixture 5 times, then take 70 μL of incubation mixture to a fresh plate. Store in −20° C. freezer immediately. • 9) Add 210 μL (3× volume) of the cold stop solution to each well of the sample plates collected. Mix at 600 rpm on an orbital shaker for 15 min. • 10) Centrifuge the quenched plates at 3800 rpm for 10 min at 4° C. and transfer supernatant to fresh plates. • 11) Load the supernatant on filter plates and centrifuge again at 3800 rpm for 5 min at 4° C. Collect final samples in fresh plates for LC/MS. • 11. Time course and stop solutions: 4-5 Time points (hour): e.g. 0, 4, 8, 24, 48 hr stop solution: 1:1:1 ACN/MeOH/IPA (v/v/v) with propranolol & MC3 as internal standard. Store at 4° C.

[3] = Lipid degradability by human lung S9 in vitro; assay type: in vitro ADME; settings: 2 μM lipid, 2.4 mg/ml lung S9, pH 7.4, 37° C., time points up to 48 hr
Method: as §1, §2

[4] = dose 10 μg/Animal, lipid nanoparticle formulation 1, approximately 24 hours post-dose
[5] = dose 5 μg/Animal, lipid nanoparticle formulation 1, approximately 24 hours post-dose

| Compound | In vitro degradation Mouse lung S9 [2] | In vitro degradation Human lung S9 [3] | FFLuc (Avr. Rad.) [1, 4] | FFLuc (Avr. Rad.) [1, 5] | in vivo FFL protein production (FIG. 8), in words [1] | also measured |
| --- | --- | --- | --- | --- | --- | --- |
| CCCCCCCCCCCCC(O)CN(CCCC(=O)Oc1c(OC)cc(C(=O)OCCCN(C)C)cc1OC)CC(O)CCCCCCCCCCCC (stereo not shown) [Compound A, reference compound] | – | – | – | – | – | FFLuc (Avr. Rad.) ([1]; dose 10 μg/Animal, lipid nanoparticle formulation 4, approximately 24 hours post-dose): 221,320 p/s/cm^2/sr |
| CCCCCCCCOC(=O)CC(CC(=O)OCCCCCCCC)(OC(=O)CCN(C)C)C(=O)OCCCCCCCC [Compound B, reference compound] | – | – | – | – | – | FFLuc (Avr. Rad.) ([1]; dose 10 μg/Animal, lipid nanoparticle formulation 2, approximately 24 hours post-dose): 139,058 p/s/cm^2/sr |
| CCCCCCCCOC(=O)CC(CC(=O)OCCCCCCCC)(OC(=O)/C=C/C(=O)Oc1c(OC)cc(C(=O)OCCCN(C)C)cc1OC)C(=O)OCCCCCCCC [Compound X] | – | – | 173,197 p/s/cm^2/sr | – | – | – |
| CC(C)CCCC(C)[C@H]1CCC2C3CC=C4C[C@@H](OC(=O)CCc5c[nH]cn5)CC[C@]4(C)C3CC[C@@]21C (stereo partly shown) [ICE, imidazole cholesterol ester, reference compound] | – | – | 7,508 p/s/cm^2/sr | – | – | – |

More lines, main results first:

| In vitro degradation Mouse lung S9 [2] | In vitro degradation Human lung S9 [3] | Compound | FFLuc (Avr. Rad.) [1, 4] | FFLuc (Avr. Rad.) [1, 5] | in vivo FFL protein production (FIG. 8), in words [1] | also measured |
| --- | --- | --- | --- | --- | --- | --- |
| 6.8 h | 17.1 h | CCCCC/C=C/COC(=O)CC(CC(=O)OC/C=C/CCCCC)(OC(=O)CCC(=O)Oc1c(OC)cc(C(=O)OCCCN(C)C)cc1OC)C(=O)OC/C=C/CCCCC [Compound III] | 353,012 p/s/cm^2/sr | – | – | – |
| 16.6 h | 20.2 h | CCCCCCCCOC(=O)CC(CC(=O)OCCCCCCCC)(OC(=O)CCC(=O)Oc1c(OC)cc(C(=O)OCCCN(C)C)cc1OC)C(=O)OCCCCCCCC [Compound II] | – | 592,250 p/s/cm^2/sr | high levels of in vivo FFL protein production | – |
| 16.2 h | 20.2 h | CCCCCCCCOC(=O)CC(CC(=O)OCCCCCCCC)(OC(=O)CCC(=O)Oc1c(OC)cc(C(=O)OCCN(C)C)cc1OC)C(=O)OCCCCCCCC [Compound I] | – | 158,516 p/s/cm^2/sr | high levels of in vivo FFL protein production | – |
| 1.3 h | 14.8 h | CCCCCC#CCOC(=O)CC(CC(=O)OCC#CCCCCC)(OC(=O)CCC(=O)Oc1c(OC)cc(C(=O)OCCCN(C)C)cc1OC)C(=O)OCC#CCCCCC [Compound V] | 567,300 p/s/cm^2/sr | – | – | – |
| 36 h | long (over 48 h | CCCCCCCCOC(=O)CC(CC(=O)OCCCCCCCC)(OC(=O)CCC(=O)Oc1c(OC)cc(/C=C/C(=O)OCCCN(C)C)cc1OC)C(=O)OCCCCCCCC [Compound XXVI] | – | 140,620 p/s/cm^2/sr | high levels of in vivo FFL protein production | – |
